Assay results as given in PubChem BioAssay AID218 (DTP/NCI, 2004).
Several values for one entry are separate records, joined by “and”; a condition that tells them apart may be missing. Identical values can stand only once.

System: C57BL/6 mice, Adenocarcinoma 755 sc, tumor weight T/C
Assay: NCI In Vivo Anticancer Drug Screen. Data for tumor model Adenocarcinoma 755 (subcutaneous) in C57BL/6 mice
Conditions: endpoint: mean tumor weight, higher = larger tumour
Method: The antitumor activity of compounds was measured in mice bearing transplantable tumors. Survival or tumor size were measured and the results are expressed as the measurement made in the treated group (T) divided by the measurement made in the vehicle treated control group (C). The tumor model used in this assay is Adenocarcinoma 755 (subcutaneous) in C57BL/6 mice

[1] = dose: 0.5 mg/kg/injection, schedule: Q01DX011 (ip), vehicle: carboxymethylcellulose (CMC)
[2] = dose: 50.0 mg/kg/injection, schedule: Q01DX011 (ip), vehicle: saline
[3] = dose: 100.0 mg/kg/injection, schedule: Q01DX011 (ip), vehicle: saline
[4] = dose: 125.0 mg/kg/injection, schedule: Q01DX011 (ip), vehicle: saline
[5] = dose: 250.0 mg/kg/injection, schedule: Q01DX011 (ip), vehicle: saline
[6] = dose: 500.0 mg/kg/injection, schedule: Q01DX011 (ip), vehicle: saline
[7] = dose: 20.0 mg/kg/injection, schedule: Q01DX011 (ip), vehicle: saline
[8] = dose: 25.0 mg/kg/injection, schedule: Q01DX011 (ip), vehicle: saline
[9] = dose: 15.0 mg/kg/injection, schedule: Q01DX011 (ip), vehicle: saline
[10] = dose: 20.0 mg/kg/injection, schedule: Q02DX006 (ip), vehicle: other
[11] = dose: 40.0 mg/kg/injection, schedule: Q02DX006 (ip), vehicle: other
[12] = dose: 6.25 mg/kg/injection, schedule: Q01DX011 (ip), vehicle: saline
[13] = dose: 12.5 mg/kg/injection, schedule: Q01DX011 (ip), vehicle: saline

CCCCNc1ncnc2nc[nH]c12
T/C (dose: 30.0 mg/kg/injection, schedule: Q01DX011 (ip), vehicle: carboxymethylcellulose (CMC)): 91 % of control

OCC1OC(n2cnc3c(=S)nc[nH]c32)C(O)C1O (centres undefined)
T/C [1]: 29 % of control | T/C (dose: 1.25 mg/kg/injection, schedule: Q01DX011 (ip), vehicle: carboxymethylcellulose (CMC)): 13 % of control | T/C (dose: 2.5 mg/kg/injection, schedule: Q01DX011 (ip), vehicle: carboxymethylcellulose (CMC)): 3 % of control | T/C (dose: 34.0 mg/kg/injection, schedule: Q01DX011 (ip), vehicle: saline): 2 % of control | T/C (dose: 320.0 mg/kg/injection, schedule: Q01DX001 (oral), vehicle: alkali diluted with saline): 10 % of control | T/C (dose: 320.0 mg/kg/injection, schedule: Q03DX004 (oral), vehicle: alkali diluted with saline): 2 % of control | T/C (dose: 320.0 mg/kg/injection, schedule: Q07DX002 (oral), vehicle: alkali diluted with saline): 5 % of control | T/C (dose: 480.0 mg/kg/injection, schedule: Q01DX001 (oral), vehicle: alkali diluted with saline): 12 % of control | T/C (dose: 480.0 mg/kg/injection, schedule: Q03DX004 (oral), vehicle: alkali diluted with saline): 6 % of control | T/C (dose: 480.0 mg/kg/injection, schedule: Q07DX002 (oral), vehicle: alkali diluted with saline): 5 % of control | T/C (dose: 640.0 mg/kg/injection, schedule: Q01DX001 (oral), vehicle: alkali diluted with saline): 68 % of control | T/C (dose: 640.0 mg/kg/injection, schedule: Q03DX004 (oral), vehicle: alkali diluted with saline): 1 % of control | T/C (dose: 640.0 mg/kg/injection, schedule: Q07DX002 (oral), vehicle: alkali diluted with saline): 32 % of control

O=C(O)C(=O)CF
T/C [2]: 63 % of control

CCOC(C)C(/C=N/NC(N)=S)=NNC(N)=S (centres undefined)
T/C (dose: 120.0 mg/kg/injection, schedule: Q01DX011 (ip), vehicle: saline): 59 % of control

c1ccc(Sc2ncnc3nc[nH]c23)cc1
T/C [2]: 15 % of control | T/C (dose: 75.0 mg/kg/injection, schedule: Q01DX011 (ip), vehicle: saline): 14 % of control | T/C [3]: 5 % of control

CS(=O)(=O)OCCC(=O)N1CCN(C(=O)CCOS(C)(=O)=O)CC1
T/C (dose: 6.25 mg/kg/injection, schedule: Q01DX011 (ip), vehicle: methylcellulose (MC)): 83 % of control | T/C (dose: 12.5 mg/kg/injection, schedule: Q01DX011 (ip), vehicle: methylcellulose (MC)): 86 % of control | T/C (dose: 25.0 mg/kg/injection, schedule: Q01DX011 (ip), vehicle: methylcellulose (MC)): 55 % of control

O=[N+]([O-])c1ccc2c(c1)Cc1c-2cc(Br)c(O)c1Br
T/C (dose: 62.5 mg/kg/injection, schedule: Q01DX011 (ip), vehicle: saline): 60 % of control | T/C [4]: 58 % of control | T/C [5]: 43 % of control | T/C [6]: 33 % of control

CCCCCCCCCCCNc1ncnc2[nH]ncc12
T/C [2]: 46 % of control | T/C [3]: 41 % of control

CC(C)Sc1nc(N)nc2nc[nH]c12
T/C [3]: 7 % of control

CCc1nc(N)nc(N)c1-c1ccc(Cl)cc1
T/C [2]: 67 % of control

CN(C)c1ncnc2c1ncn2C1OC(CO)C(N)C1O (centres undefined)
T/C [7]: 23 % of control | T/C [8]: 62 % of control | T/C (dose: 30.0 mg/kg/injection, schedule: Q01DX011 (ip), vehicle: saline): 13 % of control | T/C (dose: 35.0 mg/kg/injection, schedule: Q01DX011 (ip), vehicle: saline): 9 % of control

CN(CC(=O)O)C(=N)N
T/C [5]: 105 % of control | T/C [6]: 110 % of control | T/C (dose: 1000.0 mg/kg/injection, schedule: Q01DX011 (ip), vehicle: saline): 57 % of control | T/C (dose: 2000.0 mg/kg/injection, schedule: Q01DX011 (ip), vehicle: saline): 102 % of control

Nc1ncnc2[nH]ncc12
T/C (dose: 10.0 mg/kg/injection, schedule: Q02DX006 (ip), vehicle: other): 28 % of control | T/C [9]: 7 % of control and 22 % of control | T/C [7]: 9 % of control | T/C [10]: 16 % of control | T/C [11]: 4 % of control

Nc1nc(=S)c2ncn(C3OC(CO)C(O)C3O)c2[nH]1 (centres undefined)
T/C [1]: 48 % of control | T/C (dose: 1.0 mg/kg/injection, schedule: Q01DX011 (ip), vehicle: carboxymethylcellulose (CMC)): 13 % of control | T/C (dose: 2.0 mg/kg/injection, schedule: Q01DX011 (ip), vehicle: carboxymethylcellulose (CMC)): 2 % of control

Cn1cnc([N+](=O)[O-])c1Sc1ccccc1
T/C [8]: 84 % of control | T/C [2]: 47 % of control | T/C [3]: 53 % of control

O=P1(N(CCF)CCCl)NCCCO1 (centres undefined)
T/C [12]: 76 % of control | T/C [13]: 94 % of control | T/C [8]: 66 % of control | T/C [2]: 88 % of control

Cn1ncc2c(N)ncnc21
T/C [10]: 47 % of control | T/C [11]: 28 % of control

CSc1nc(N)nc2nc[nH]c12
T/C (dose: 10.0 mg/kg/injection, schedule: Q01DX011 (ip), vehicle: saline): 1 % of control | T/C [9]: 1 % of control

NNc1nc2nc[nH]c2c(=O)[nH]1
T/C [2]: 35 % of control

CSc1nc2nc[nH]c2c(=O)[nH]1
T/C (dose: 50.0 mg/kg/injection, schedule: Q01DX011 (ip), vehicle: carboxymethylcellulose (CMC)): 112 % of control

Cn1cnc([N+](=O)[O-])c1Sc1nc(N)nc2nc[nH]c12
T/C (dose: 5.0 mg/kg/injection, schedule: Q01DX011 (oral), vehicle: saline): 2 % of control

Cc1ncc(CO)c(C)c1O
T/C (dose: 3.13 mg/kg/injection, schedule: Q01DX011 (ip), vehicle: saline): 88 % of control | T/C [12]: 107 % of control | T/C [13]: 98 % of control | T/C [8]: 106 % of control | T/C [2]: 74 % of control and 88 % of control | T/C [3]: 84 % of control and 107 % of control | T/C [4]: 47 % of control | T/C (dose: 150.0 mg/kg/injection, schedule: Q01DX011 (ip), vehicle: saline): 56 % of control and 66 % of control | T/C (dose: 200.0 mg/kg/injection, schedule: Q01DX011 (ip), vehicle: saline): 119 % of control
